Data from PubChem BioAssay (NCI).
Several values for one entry are separate records, joined by “and”; a condition that tells them apart may be missing. Identical values can stand only once.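 Cultured in 96-well plates, cells were exposed to test compound for 48 hours across five concentrations. At the GI50, growth is halved. Definition used: TGI = concentration required for complete inhibition of growth.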

Test system: MDA-MB-468 breast
Experiment: NCI anticancer screen, dose series, 48 h

Oc1[nH]c2ccccc2c1/C=c1/cc2c(c(-c3ccc(C(F)(F)F)cc3)n1)=Nc1ccccc1-2
GI50: 3820 nM | TGI: 16100 nM

COc1ccc2[nH]c(-c3ccccc3)cc2c1
GI50: 47000 nM | TGI: > 100000 nM

COc1ccc2cc(-c3c(-c4ccncc4)nc(-c4ccc(S(C)=O)cc4C)n3C)ccc2c1 (stereo not given)
GI50: 9070 nM | TGI: > 25000 nM

CN(C)C(=O)SC1=C(c2c(Cl)cccc2Cl)C(=O)c2ccccc21
GI50: 1970 nM | TGI: 4150 nM

COc1ccc(NC(=O)c2sc3nc4c(cc3c2N)CCCC4)cc1
GI50: 481 nM | TGI: 96400 nM

O=C(/C=C/c1cn(-c2ccccc2)nc1-c1ccc([N+](=O)[O-])cc1)c1ccc(Cl)cc1
GI50: 2910 nM | TGI: > 100000 nM

O=C1C=C(N2CCN(c3ccccn3)CC2)C(=O)c2c(O)ccc(O)c21
GI50: 2750 nM

c1ccc(CC(NCCNC(Cc2ccccc2)c2ccccc2)c2ccccc2)cc1 (stereo not given)
GI50: 255 nM | TGI: 745 nM

O=C(CCN1CCCC1)Nc1ccc2c(Nc3ccccc3)c3ccccc3nc2c1
GI50: 182 nM | TGI: 1600 nM

Cn1cc(CO)c2ccccc21
GI50: 10500 nM | TGI: 48700 nM

Nc1ccn([C@@H]2C(F)=C(CO)[C@@H](O)[C@H]2O)c(=O)n1
GI50: 31200 nM | TGI: > 100000 nM

CCCCCCOc1ccc(C(=N)N(CCCC)CCCC)c2ccccc12
GI50: 590 nM | TGI: 2010 nM

Nc1ncnc2c1c(-c1ccc(Oc3ccccc3)cc1)nn2C[C@@H]1SSC[C@@H]1O
GI50: 400 nM | TGI: 2190 nM

COc1ccc(-c2cc(/C=C/C(=O)c3cc(OC)c(OC)c(OC)c3)[nH]n2)cc1OC
GI50: 1330 nM | TGI: 3270 nM

C[C@@H]1C/C=C\C(=O)O[C@H](/C=C/C#C/C=C/C(C)(C)[C@@H](O)c2cccc(O)c2Br)[C@@H](C)/C=C/[C@H](C)C[C@H](OC(N)=O)C1
GI50: 61.1 nM | TGI: 17800 nM

CC[C@H](C)[C@H](NC(=O)[C@H]1CCCCN1C)C(=O)N(C)[C@H](C[C@@H](OC(C)=O)c1nc(C(=O)N[C@@H](Cc2ccccc2)C[C@H](C)C(=O)OC)cs1)C(C)C
TGI: 4450 nM

CN(C)CCCN1c2ccccc2Sc2ccc(Cl)cc21
GI50: 1670 nM and 1810 nM | TGI: 3540 nM and 4620 nM

Cc1cc(=O)oc2cc(OCCn3c(C)nn(-c4ccc(Cl)cc4)c3=O)ccc12
GI50: 2690 nM | TGI: 57600 nM

COc1ccc(-c2nc3c(c(=O)n2C(C)=O)C(c2ccc(Cl)cc2)c2sc4c(Cl)cccc4c2O3)cc1 (stereo not given)
GI50: 234 nM | TGI: 571 nM

CN(C)C/C=C/C(=O)Nc1ccc(C(=O)N2CCC[C@@H](Nc3ncc(Cl)c(-c4c[nH]c5ccccc45)n3)C2)cc1
GI50: 24.9 nM | TGI: 72.2 nM

CCc1cccc(CC)c1/C=C/c1cncc(C(=O)NC)c1
GI50: 4030 nM | TGI: 20600 nM

COc1ccc(C(=O)C[C@]2(O)C(=O)Nc3c(Cl)ccc(Cl)c32)cc1
GI50: 395 nM | TGI: > 67100 nM

Fc1c[c-]c(-c2ccccn2)c(F)c1.[CH3-].[Pt+2].c1ccc(P(C[PH+](c2ccccc2)c2ccccc2)c2ccccc2)cc1
GI50: 325 nM | TGI: 946 nM

CN(C)CCCC1(c2ccc(F)cc2)OCc2cc(-c3cncc4ccccc34)ccc21 (stereo not given)
GI50: 1550 nM | TGI: 3190 nM

CCNC(=O)Oc1ccc(/C(=C(/C)c2ccc(OC)cc2)c2ccc(OCCN3CCCCCC3)cc2)cc1
GI50: 2050 nM | TGI: 8090 nM

O=c1oc2ccc(F)cc2c(=O)n1-c1ccc(Br)cc1F
GI50: 1530 nM | TGI: 5490 nM

NC(=O)c1cc(I)ccc1NC(=O)COc1ccccc1
GI50: 311 nM

CC(=O)Oc1ccc(C2(c3ccc(OC(C)=O)cc3)C(=O)Nc3ccccc32)cc1
GI50: 68.2 nM and 73.8 nM | TGI: 40800 nM and 91000 nM

Cc1cc(NC(=O)NC(=O)c2ccccc2N(C)C)ccc1Oc1ncc(Br)cn1
GI50: 490 nM | TGI: > 100000 nM

C1=C2CNCC3=Cc4ccc5ccccc5c4OC23Oc2c1ccc1ccccc21
GI50: 2060 nM | TGI: 7550 nM

O=C(Cc1ccc(/C=C/C(=O)c2ncc[nH]2)cc1)Nc1ccc(C(F)(F)F)cc1
GI50: 1770 nM | TGI: 6840 nM

COc1ccccc1/C=C\C(=O)c1ccccc1
GI50: 3970 nM | TGI: 19100 nM

O=C(Nc1ccc(Cl)cc1)Nc1ccccc1CNc1nc(Nc2ccc(OCCN3CCCC3)cc2)ncc1Cl
GI50: 998 nM | TGI: 2280 nM

CCO/C=N/C1=C(C#N)C(c2ccc(Cl)cc2)c2sc3c(CC)cccc3c2O1 (stereo not given)
GI50: 911 nM | TGI: 11000 nM

COc1cc2cc(Oc3ccc(NC(=O)c4cccc5c4OCCO5)cc3)c(C)nc2cc1OC
GI50: 2930 nM | TGI: 48700 nM

CCCn1cnc2c(SCc3ccccc3)nc(N)nc21
GI50: 23600 nM | TGI: > 100000 nM

O=C(Nc1ccccc1O)c1ccc(CNC(=O)c2ccsc2Nc2ccnc(C(F)(F)F)c2)cc1
GI50: 1430 nM | TGI: 3530 nM

Cc1n(Cc2ccc3ccccc3c2)c(Cl)c(Cl)[n+]1Cc1ccc2ccccc2c1
GI50: 1090 nM | TGI: 2920 nM

Cn1cnc([N+](=O)[O-])c1Sc1nc(N)nc2nc[nH]c12
GI50: 884 nM | TGI: 6110 nM

COc1cc2nnn3c4ncccc4c(N=O)c3c2cc1OC
GI50: 156 nM | TGI: 1090 nM

COC(=O)[C@H](Cc1ccccc1)NC(=O)c1csc([C@@H](C[C@H](C(C)C)N(C)C(=O)[C@@H](NC(=O)[C@H]2CCCN2C)C2CC2)OC(C)=O)n1
GI50: 153 nM | TGI: > 33300 nM

COc1cc(-n2cc(-c3cc(O)c(C/C=C(\C)CCC=C(C)C)c(O)c3)nn2)cc2c1O[C@]1(C)CC[C@@H](O)C(C)(C)[C@H]1C2
GI50: 880 nM | TGI: 4890 nM

CCC(=O)c1cc([N+](=O)[O-])c(Br)s1
GI50: 1920 nM | TGI: 3690 nM

CCCNC(=O)CCC(C)[C@H]1CCC2C3C(C[C@H](OC(C)=O)[C@@]21C)[C@@]1(C)CCC2(C[C@H]1C[C@H]3OC(C)=O)OOC1(CCCCC1)OO2 (stereo not given in full)
GI50: 1890 nM | TGI: 6770 nM
